This note sets out measurements from US11116774B2, “Modulators of toll-like receptors for the treatment of HIV” (Gilead Sciences, Inc., priority 2014, dated 2021).

Assay [1] has as its system HIV-1 expression in PBMC cultures from HIV-1 infected donors on cART. Nature of the assay: Induced HIV-1 expression in PBMC cultures from HIV-1 infected donors on cART (Example 208). The assay is classed as cell-based, human. The note with it: Tables 7-11; for fold induction at 0.01 µM / fold induction at 0.156 µM / fold induction at 2.5 µM: Human immunodeficiency virus 1, PBMC; for fold induction at 0.01 µM: read-out: Fold HIV-1 Induction, Geometric Mean, 0.01 μM. The method, then: Isolated PBMCs were treated with various concentrations (0.1, 1, and 10 μM) of the TLR7 modulating compounds (compounds of Example 4 and Example 49) or dimethyl sulfoxide (DMSO) treated (vehicle control) for 4 to 5 days. The cultures were maintained in the presence of antivirals (elvitegravir and efavirenz at 100 nM each) to prevent viral spread and amplification in order to measure initial virus production (latency reversal) created by the TLR7 modulating compounds. At the end of the incubation period cell-free culture supernatants were harvested and HIV-1 RNA levels were quantified by the COBAS® AmpliPrep/COBAS® TaqMan HIV-1 Test, v2.0 (Roche).
Using the method described above in Example 208, HIV-1 expression in PBMC cultures derived from four additional HIV-1 infected donors on cART were tested in the presence of the compounds of Examples 4, 29, 120, 121, 122, 123, 124, resiquimod, and imiquimod.

Assay [2] relates to polyfunctional proliferating CD8 T cells (CFSE low, IFNg+, TNFa+). Nature of the assay: Induction of HIV-specific polyfunctional CD8 T cells by combination with an IDO1 inhibitor (Example 217). Type of assay: cell-based, human. On the procedure: PBMCs from 4 HIV-infected donors (Donor IDs 180-183) on suppressive cART were isolated, as described previously, stained with CFSE, and treated with 500 ng/ml 15-mer peptide pools derived from overlapping HIV gag, pol, nef, and env consensus peptides (JPT Peptide Technologies GmbH). PBMC cultures were treated with DMSO or the compound of Example 49 (GS-9620) at 0.1 uM. In some cultures treated with Example 49, the IDO1 small molecule inhibitor, INCB024360, was combined at 2 μM. Cells were incubated at 37° C. for 8 days, then split into duplicate sets and stained in DPBS with LIVE/DEAD Fixable Aqua Dead Cell Stain (Life Technologies). The immune recall response was performed as previously described. FACS was performed on a LSR Fortessa (BD Biosciences) and data analysis was done with FlowJo software (TreeStar). Data was plotted and statistical analysis was done with GraphPad Prism software (GraphPad).

[3] abbreviates: read-out: Fold HIV-1 Induction, Geometric Mean, 0.156 μM, donors 152-155.
Where [4] appears, read: read-out: Fold HIV-1 Induction, Geometric Mean, 2.5 μM, donors 152-155.

Like-named read-outs stand apart in the source and are kept apart here.

Consider `COCCOc1cc2c([nH]c(=O)n2Cc2ccc(-c3ccc(CN4CCCC4)cc3)cc2)c(N)n1` [Example 120, 4-amino-6-(2-methoxyethoxy)-1-((4′-(pyrrolidin-1-ylmethyl)-[1,1-biphenyl]-4-yl)methyl)-1H-imidazo[4,5-c]pyridin-2(3H)-one], for which the “Donors with ≥2-fold HIV-1 Induction” value in assay [1] (0.01 μM), in assay [1] (0.156 μM) and in assay [1] (2.5 μM) was 4 of 4 each time. Further, the fold induction at 0.01 µM in assay [1] (donors 152-155) was 3.9. Besides, the fold induction at 0.156 µM in assay [1] (setting [3]) amounted to 5.5. Further, the fold induction at 2.5 µM in assay [1] (setting [4]) amounted to 4.

Regarding `COCCOc1nc(N)c2[nH]c(=O)n(Cc3ccc(-c4ccc(CN5CCCC5)cc4)cc3)c2c1Cl` [Example 121, 4-amino-7-chloro-6-(2-methoxyethoxy)-1-((4′-(pyrrolidin-1-ylmethyl)-[1,1-biphenyl]-4-yl)methyl)-1H-imidazo[4,5-c]pyridin-2(3H)-one], the figures for the “Donors with ≥2-fold HIV-1 Induction” value in assay [1] (0.01 μM), in assay [1] (0.156 μM) and in assay [1] (2.5 μM) were 2 of 4, 2 of 4 and 4 of 4, respectively. Also, in assay [1] (donors 152-155), the fold induction at 0.01 µM was 1.3. Moreover, the fold induction at 0.156 µM in assay [1] (setting [3]) stood at 1.3. In assay [1] (setting [4]), the fold induction at 2.5 µM came to 2.9.

`COCCOc1nc(N)c2nc(O)n(Cc3ccccc3)c2n1` [Example 122, 6-amino-9-benzyl-2-(2-methoxyethoxy)-9H-purin-8-ol, reference compound]: the “Donors with ≥2-fold HIV-1 Induction” value in assay [1] (0.01 μM) is 3 of 4; in assay [1] (0.156 μM) it was 3 of 4; in assay [1] (2.5 μM), 4 of 4. Moreover, the fold induction at 0.01 µM in assay [1] (donors 152-155) was 5. Moreover, the fold induction at 0.156 µM in assay [1] (setting [3]) stood at 4.8. Besides, in assay [1] (setting [4]), the fold induction at 2.5 µM turned out to be 6.9.

As for `CCc1nc2c(N)nc3ccccc3c2n1CCCCNS(C)(=O)=O` [Example 123, N-(4-(4-amino-2-ethyl-1H-imidazo[4,5-c]quinolin-1-yl)butyl)methane sulfonamide, reference compound], the figures for the “Donors with ≥2-fold HIV-1 Induction” value in assay [1] (0.01 μM), in assay [1] (0.156 μM) and in assay [1] (2.5 μM) were 2 of 4, 3 of 4 and 4 of 4, respectively. Further, the fold induction at 2.5 µM is 3.3 in assay [1] (96 h, read-out: Fold HIV-1 Induction, 2.5 μM, per donor, supernatants Day 4, PBMCs added to pre-plated compounds) and 5.1 in assay [1] (setting [4]). In addition, the fold induction at 0.01 µM in assay [1] (donors 152-155) came out at 1.9. Further, the fold induction at 0.156 µM in assay [1] (setting [3]) is 3.4.

`Nc1nc(=O)c2sc(=O)n([C@@H]3O[C@H](CO)C[C@H]3O)c2[nH]1` [Example 124, 5-amino-3-((2R,3R,5S)-3-hydroxy-5-(hydroxymethyl)tetrahydrofuran-2-yl)thiazolo[4,5-d]pyrimidine-2,7(3H,4H)-dione, reference compound]: the entries for the “Donors with ≥2-fold HIV-1 Induction” value in assay [1] (0.01 μM), in assay [1] (0.156 μM) and in assay [1] (2.5 μM) were 3 of 4, 2 of 4 and 2 of 4, respectively. Further, the fold induction at 0.01 µM in assay [1] (donors 152-155) was found to be 3.7. Moreover, the fold induction at 0.156 µM in assay [1] (setting [3]) was found to be 1.8. In addition, the fold induction at 2.5 µM in assay [1] (setting [4]) was 1.6.

Take `NS(=O)(=O)NCCNc1nonc1C(=NO)Nc1ccc(F)c(Br)c1` [INCB024360, reference compound]: the “further increase of mean level of polyfunctional proliferating CD8 T cells (TLR7 only vs. TLR7+IDO1)” value in assay [2] was determined as 70%.

Regarding `CC(C)Cn1cnc2c(N)nc3ccccc3c21` [imiquimod, reference compound], the “Donors with ≥2-fold HIV-1 Induction” value in assay [1] (0.01 μM) is listed as 4 of 4; in assay [1] (0.156 μM), 4 of 4; in assay [1] (2.5 μM), 3 of 4. The fold induction at 0.156 µM in assay [1] (96 h, read-out: Fold HIV-1 Induction, 0.156 μM, per donor, supernatants Day 4, PBMCs added to pre-plated compounds) was determined as 4.4; in assay [1] (setting [3]) it was 5.4. The fold induction at 0.01 µM in assay [1] (donors 152-155) is 4.3. The fold induction at 2.5 µM in assay [1] (setting [4]) is 4.8.

As for `CCOCc1nc2c(N)nc3ccccc3c2n1CC(C)(C)O` [resiquimod, reference compound], in assay [1] (donors 152-155), the fold induction at 0.01 µM came to 5. The fold induction at 0.156 µM in assay [1] (setting [3]) turned out to be 6.9. Further, the fold induction at 2.5 µM in assay [1] (setting [4]) is 7.4.
